The values that follow come from the Deep4Chem optical property database.

The data set can be described thus: solvent given as SMILES.

For `Cc1ccc2nc3c(=O)[nH]c(=O)[nH]c3nc2c1C`, the emission maximum (in CC#N) is recorded as 461 nm.

In turn, `CC1(C)C(/C=C/C2=C(Cl)C(=C/C=C3/N(Cc4ccc(F)cc4)c4ccccc4C3(C)C)/CCC2)=[N+](Cc2ccc(F)cc2)c2ccccc21` came in with an emission maximum (in CO) of 809 nm.

For the molecule `c1ccc(-c2nc(-c3ccc(-c4nc(-c5ccccc5)c(-c5ccccc5)o4)cc3)oc2-c2ccccc2)cc1`, the emission maximum (in C1COCCO1) amounted to 428 nm.

The molecule `CCN(C(C)=O)c1cc2c(cc1C)C(c1ccccc1C(=O)O)=C1CCCC(/C=C/C3=[N+](C)c4ccccc4C3(C)C)=C1O2` displayed an emission maximum (in CCO) of 687 nm.

As to `C1=[N+](c2ccccc2)[B-]2(Oc3c1ccc1c4c(ccc31)C=[N+](c1ccccc1)[B-]1(O4)c3ccccc3Oc3ccccc31)c1ccccc1Oc1ccccc12`, the emission maximum is 605 nm (in Cc1ccccc1) and 599 nm (in ClCCl).

For the molecule `CC(C)(C)NC1=C2C=CC=[N+]2[B-](F)(F)n2cccc21`, the emission maximum by setting is: (in C1CCCCC1) 503 nm; (in CC(C)=O) 492 nm; (in CCO) 494 nm; (in CCOC(C)=O) 498 nm; (in CO) 491 nm; (in OCC(F)(F)F) 497.5 nm.

`CN(C)c1ccc(C2=C3C=C(c4ccc(C#N)cc4)S[C@]34c3ccccc3[C@H]2c2ccccc24)cc1`: the emission maximum (in ClCCl) came out at 601 nm.

Consider `CCn1c2ccccc2c2cc(-c3cc(-c4ccc5c(c4)c4ccccc4n5CC)nc(C#N)n3)ccc21`, for which the emission maximum runs as follows: (in C1CCOC1) 427 nm; (in CCOC(C)=O) 422 nm; (in CN(C)C=O) 455 nm; (in Cc1ccccc1) 404 nm; (in ClCCl) 435 nm.

On to `CCCCCCN1C(=O)c2cccc3cc(/N=C\c4nc5ccccc5s4)cc(c23)C1=O`, for which, where the note is “in ClC(Cl)Cl”, the emission maximum was 495 nm.

As for `CCCCCOc1ccc2c(c1)c1ccc3cccc4c5cccc6oc(=O)c2c(c65)c1c34`, the emission maximum (in C1CCOC1) is on record as 462 nm.

`O=c1c2cccc3cccc(c32)c2nc3c4ccccc4c4ccccc4c3n12` yielded an emission maximum (in ClCCl) of 589 nm.

On to `COc1cc2c(cc1-c1ccncc1)Cc1c3c(c4c(c1-2)-c1cc(OC)c(-c2ccncc2)cc1C4)C(=O)N(CCC(C)C)C3=O`, for which, for the setting “in C1CCOC1”, the emission maximum amounted to 456 nm.

Regarding `CCOC(=O)c1c(-c2c(Cl)c3ccccc3oc2=O)nn(-c2cccc(Cl)c2)c1C(=O)OCC`, the emission maximum (in ClCCl) was found to be 409 nm.

`Cc1cc(C)c(-c2nnc(-c3ccc(-n4c5ccccc5c5ccccc54)c(C)c3)o2)c(C)c1`: the emission maximum is, setting by setting: (in CCO) 440 nm; (in Cc1ccccc1) 377 nm.

Turning to `Cc1nc(-c2cc(C(F)(F)F)ccc2O)n2c1CCCC2`, for the setting “in ClCCl”, the emission maximum was 432 nm.

For the molecule `FP(F)(c1c2ccccc2cc2ccccc12)(c1c2ccccc2cc2ccccc12)c1c2ccccc2cc2ccccc12`, the emission maximum (in C1CCOC1) was 410 nm.

Regarding `CCN1CCCc2cc3c(cc21)Oc1cc2c(cc1=N3)C(CS(=O)(=O)[O-])CC(C)(C)[N+]=2CCCC(=O)[O-]` (stereo not given), the emission maximum (in O) is on record as 690 nm.

Take `CCOC(=O)c1cc2ccc3ccccc3c2c(C#N)c1N`: for the setting “in Cc1ccccc1”, the emission maximum was found to be 461 nm.

For the molecule `O=Cc1ccc(C#CC(C#Cc2ccc(C=O)s2)=Cc2ccc(C=C(C#Cc3ccc(C=O)s3)C#Cc3ccc(C=O)s3)cc2)s1`, the emission maximum (in ClC(Cl)Cl) was 533 nm.

As for `CC1(C)c2cc(C#N)ccc2-c2ccc(N3c4ccccc4Oc4ccccc43)cc21`, the emission maximum (in C1CCCCC1) was 433 nm; the emission maximum (in C1CCOC1) was determined as 550 nm; the emission maximum (in CC#N) was found to be 620 nm; the emission maximum (in Cc1ccccc1) is given as 487 nm; the emission maximum (in ClC(Cl)Cl) is on record as 530 nm.

As for `COc1ccc2cc(/C=C/c3ccccc3)c(=O)oc2c1`, the emission maximum (in CC#N) is listed as 464 nm.

Under “in ClC(Cl)Cl”, `C(=N\c1ccc(-c2cn3nc(-c4cccs4)sc3n2)cc1)/c1ccc(N(c2ccccc2)c2ccccc2)cc1` showed an emission maximum of 552 nm.

Turning to `COCCC1(CCOC)c2cc(-c3ccc(OC)cc3)ccc2-c2ccc(-c3ccc4c(c3)C(CCOC)(CCOC)c3cc(-c5ccc(OC)cc5)ccc3-4)cc21`, the emission maximum (in CN(C)C=O) amounted to 395 nm.

Molecule `COc1ccc(C2=C/C(=C\c3ccc([N+](=O)[O-])cc3)C(=O)N2CC(C)C)cc1` had an emission maximum (in C1COCCO1) of 616 nm.

Turning to `c1ccc2c(c1)c1ccccc1n2-c1ccc(-c2ccc(-c3ccc(-n4c5ccccc5c5ccccc54)nc3-n3c4ccccc4c4ccccc43)nn2)c(-n2c3ccccc3c3ccccc32)n1`, the emission maximum (in CC#N) turned out to be 474.18 nm, the emission maximum (in Cc1ccccc1) was determined as 400 nm and the emission maximum (in ClCCl) turned out to be 419.62 nm.

Take `CCOC(=O)c1ccc2nc(/N=N/c3ccc(N(CC)CC)cc3)sc2c1`: the emission maximum (in CC#N) was 582 nm and the emission maximum (in ClCCl) came out at 571 nm.

In turn, `COCCOCCOCCOCC(COCCOCCOCCOC)Oc1cc(/C=C/c2ccc(/C=C(\C#N)C(=O)c3ccccc3)cc2)c(OC(COCCOCCOCCOC)COCCOCCOCCOC)cc1/C=C/c1ccc(/C=C(\C#N)C(=O)c2ccccc2)cc1` displayed an emission maximum (in ClCCl) of 621 nm.

For the setting “in ClCCl”, `CCOC(=O)c1c(-c2c(Cl)c3cc(C)ccc3oc2=O)nn(-c2cccc(Cl)c2)c1C(=O)OCC` gave an emission maximum of 420 nm.

The molecule `CC(C)[Si](C#Cc1c2cc3ccccc3cc2c(C#Cc2ccc(F)cc2)c2cc3ccccc3cc12)(C(C)C)C(C)C` came in with an emission maximum (in ClCCl) of 660 nm.

`COC(=O)CC1(C(=O)OC)Oc2c(c(C(C)=O)c3c(c2C(C)=O)OCO3)O1` had an emission maximum (in CC#N) of 532 nm.

Turning to `N#Cc1ccc2cc[nH]c2c1`, the emission maximum (in C1CCOC1) is recorded as 345 nm; the emission maximum (in C1COCCO1) was 342 nm; the emission maximum (in CC#N) worked out at 354 nm; the emission maximum (in CC(C)O) is 356 nm; the emission maximum (in CCO) worked out at 358 nm; the emission maximum (in CO) stood at 367 nm. Further, the emission maximum was 363 nm (in CS(C)=O), 375 nm (in O) and 364 nm (in OCC(F)(F)F).

In turn, `Cc1cn2cc(-c3ccc(C#N)cc3)[n-][n+]2c1` showed an emission maximum (in ClCCl) of 518 nm.

In the case of `COC(=O)/C(C#N)=c1\s/c(=c2/s/c(=C(/C#N)C(=O)OC)c3cc(-c4ccc5c(c4)C(C)(C)c4ccccc4-5)sc23)c2sc(-c3ccc4c(c3)C(C)(C)c3ccccc3-4)cc12`, under “in Cc1ccccc1”, the emission maximum is given as 682 nm.

For the setting “in C1COCCO1”, `N#Cc1ccc(/C=C2\N=C(c3ccccc3)NC2=O)cc1` displayed an emission maximum of 464 nm.

Take `CCCCCCN1C(=O)c2cccc3cc(/N=C\c4ccc5c(c4)c4ccccc4n5CC)cc(c23)C1=O`: the emission maximum (in ClC(Cl)Cl) is listed as 501 nm.

For `COc1cccc(OC)c1-c1c2ccccc2c(-c2c(OC)cccc2OC)c2ccccc12`, the emission maximum (in C1CCCCC1) turned out to be 425 nm.

Regarding `c1ccc(N(c2ccccc2)c2ccc(-c3ccc4c(c3)C3(c5ccccc5Sc5ccccc53)c3cc(-c5ccc(N(c6ccccc6)c6ccccc6)cc5)ccc3-4)cc2)cc1`, the emission maximum is, setting by setting: (in ClCCl) 457 nm; (in c1cc(-n2c3ccccc3c3ccccc32)cc(-n2c3ccccc3c3ccccc32)c1) 438 nm.

For the molecule `COc1ccccc1-n1nc(C#N)c(N2CCCC2)n1`, the emission maximum (in CC#N) amounted to 418 nm.

Take `CN(CCO)c1ccc(/N=N/c2ccc([N+](=O)[O-])cc2)cc1`: the emission maximum is, setting by setting: (in CO) 580 nm; (in OCC(O)CO) 581 nm; (in OCCO) 583 nm; (in Oc1ccccc1) 581 nm.

Regarding `CCCCCCN(CCCCCC)c1ccc(C#Cc2c(F)c(F)c(F)c(F)c2F)cc1`, the emission maximum runs as follows: (in CO) 464 nm; (in ClCCl) 502 nm.

`CC(=O)OCCN1C(=O)c2cccc3c(Oc4ccccc4C)ccc(c23)C1=O`: the emission maximum (in ClC(Cl)Cl) was 419 nm.

`CCN(CC)c1ccc2cc(-c3nc4cc(C(=O)Nc5cccc(C)c5)ccc4o3)c(=O)oc2c1`: the emission maximum (in ClCCl) is on record as 495 nm.

`C=Cc1cc2ccccc2oc1=O` yielded an emission maximum (in CC#N) of 413 nm.

As for `COc1ccc(-c2csc(/C(C#N)=N\Nc3ccc(C#N)cc3)n2)cc1`, the emission maximum is, setting by setting: (in CC#N) 505 nm; (in CCO) 508 nm; (in Cc1ccccc1) 494 nm; (in ClCCl) 527 nm.

In the case of `CC1(C)CC(/C=C/c2ccc(-n3ccnc3)cc2)=CC(=C(C#N)C#N)C1`, the emission maximum stood at 524 nm (in C1CCOC1); 526 nm (in CC#N); 520 nm (in CCO); 518 nm (in CCOC(C)=O); 504 nm (in ClCCl); 511 nm (in c1ccccc1).

Take `CN(C)c1ccc2c3c(ccc2c1)CCCC3=O`: the emission maximum (in C1CCCCC1) is recorded as 449 nm; the emission maximum (in CC#N) is on record as 523 nm; the emission maximum (in CC(C)O) is reported as 520 nm; the emission maximum (in CCC(C)=O) was 517 nm; the emission maximum (in CCO) was determined as 495 nm; the emission maximum (in CCOC(C)=O) is recorded as 506 nm. Also, the emission maximum is listed as 538 nm (in CS(C)=O), 478 nm (in Cc1ccccc1), 511 nm (in ClCCl) and 498 nm (in Clc1ccccc1).

Under “in ClC(Cl)Cl”, `O=Cc1ccc(Oc2ccc3c4c(cccc24)C(=O)N(CCO)C3=O)cc1` had an emission maximum of 414 nm.

Consider `CN(C)c1ccc2c(-c3ccc(N)cc3C(=O)[O-])c3ccc(=[N+](C)C)cc-3oc2c1`, for which the emission maximum (in CCO) was 564 nm and the emission maximum (in O) is on record as 572 nm.

`FC(F)(F)c1ccc(-c2c3cccc4c5cccc6c(-c7ccc(C(F)(F)F)cc7)c7cccc8c9cccc2c9c(c34)c(c65)c78)cc1`: the emission maximum (in Cc1ccccc1) is reported as 699 nm.

As to `CCOC(=O)c1c2c3c(ccc(OC)c3c3cc4c(cc13)[Si](C)(C)O[Si]4(C)C)N(C)C2=O`, the emission maximum (in CC#N) came out at 418 nm.

For the setting “in ClC(Cl)Cl”, `c1ccc2c(-c3ccc(-n4c5ccccc5c5ccccc54)cc3)c3c(nc2c1)-c1cc2c(cc1CC3)-c1nc3ccccc3c(-c3ccc(-n4c5ccccc5c5ccccc54)cc3)c1CC2` had an emission maximum of 385 nm.
